# Test results reported in patent US6033669A, “Methods for generating cytotoxic T cells and treatment of diseases thereby” (priority 1992, dated 2000).
# Legend:
# [1] = biological target: T1, H-2D^b (Mus musculus, UniProt P01899); assay: MHC-1 upregulation on RMA-S cells (D^b); type: cell-based, murine; conditions: RMA-S cells with peptide NP366-374 (50 μM), 6 h; FIG. 8
# T1 sequence (P01899 25-362): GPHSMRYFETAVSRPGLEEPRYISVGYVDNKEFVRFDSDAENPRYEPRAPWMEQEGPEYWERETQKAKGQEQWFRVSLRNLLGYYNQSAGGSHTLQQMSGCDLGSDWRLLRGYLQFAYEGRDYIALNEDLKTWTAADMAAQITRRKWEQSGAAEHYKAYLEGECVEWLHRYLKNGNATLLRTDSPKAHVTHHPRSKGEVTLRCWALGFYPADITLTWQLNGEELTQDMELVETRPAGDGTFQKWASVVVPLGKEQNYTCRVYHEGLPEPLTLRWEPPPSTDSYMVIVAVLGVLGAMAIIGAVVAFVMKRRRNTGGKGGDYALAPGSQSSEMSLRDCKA
# T1 sequence (P01887 21-119 partner): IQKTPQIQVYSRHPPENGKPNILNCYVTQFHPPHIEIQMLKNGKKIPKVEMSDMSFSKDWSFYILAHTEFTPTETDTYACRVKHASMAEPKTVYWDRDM
# [2] = test system: RMA-S cells; assay: Membrane recycling of glycopeptide after pronase treatment; type: cell-based; conditions: pronase treated RMA-S cells, 37° C.; data not shown
# Procedure: Panel A: RMA-s cells were incubated for 24 hours at 26° C. to induce expression of empty D^b MHC-1 chains at the cell surface, and at 37° C., and stained for D^b expression. Panel B: Removal of D^b expression by pronase treatment of RMA-S cells, preincubated at 26° C. Pronase treatment for 2 h and 4 h. D^b removal is complete at 4 h. Panels C and E: 26° C. induced RMA-S cells were treated with the glycopeptides Gal2 -CSG11 (panel C) or Gal2 CAS10 (panel E), 300 μM for 2 h at 37° C., washed and stained for Gal2 expression. Panels D and F: Glycopeptide treated RMA-S cells as in panels C and E were pronase treated to remove Db and glycopeptide expression, washed and further incubated at 37° C. to allow re-expression of glycopeptides and stained for Gal2 expression.
# The capacity of the conjugate to be recycled may be assessed by incubating the cells (with bound conjugate) at 37° C. whereupon the glycopeptide will internalise. The temperature may then be lowered and the cells treated with a proteolytic enzyme (e.g. Pronase) to strip off exposed peptide/carbohydrate conjugate. On reheating, recycled conjugate may be detected by probing for the Gal2 epitope using the anti-Gal2 antibody.
# Described in FIGS. 10D and F.
# [3] = test system: EL4 and RMA-S cells; type: cell-based, mice; conditions: pronase treated peptide-coated cells incubated at 37° C.; data not shown
compound,measurement,setting,value
CCN(CC)CCCC(C)Nc1ccnc2cc(Cl)ccc12 (stereo not drawn) [chloroquine],effect on peptide mediated MHC-1 (H-2D^b) upregulation,[1],inhibits this upregulation
same,effect on return of the Gal2 epitope to the cell surface,[2],inhibited
same,effect on return of susceptibility to CTL killing,[3],blocked
